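1) Cells in 96-well plates. 2) Compound, 48 h, 5 concentrations. 3) Linear interpolation between surrounding doses. 4) Unreached endpoint = highest concentration. GI50 = concentration required for 50% inhibition of growth. Definition used: TGI = concentration required for complete inhibition of growth.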
Columns and labels:
Experiment in all cases: inhibition of tumour cell growth, NCI panel, 48 h
ACHN renal = tested on: ACHN renal
CCRF-CEM leukemia = tested on: CCRF-CEM leukemia
HCC-2998 colon = tested on: HCC-2998 colon
MALME-3M melanoma = tested on: MALME-3M melanoma
RPMI-8226 leukemia = tested on: RPMI-8226 leukemia
SN12C renal = tested on: SN12C renal
SW-620 colon = tested on: SW-620 colon
TK-10 renal = tested on: TK-10 renal
U251 CNS = tested on: U251 CNS
UO-31 renal = tested on: UO-31 renal

SMILES	GI50 (ACHN renal) [µM]	TGI (ACHN renal) [µM]	GI50 (CCRF-CEM leukemia) [µM]	TGI (CCRF-CEM leukemia) [µM]	GI50 (HCC-2998 colon) [µM]	TGI (HCC-2998 colon) [µM]	GI50 (MALME-3M melanoma) [µM]	TGI (MALME-3M melanoma) [µM]	GI50 (RPMI-8226 leukemia) [µM]	TGI (RPMI-8226 leukemia) [µM]	GI50 (SN12C renal) [µM]	TGI (SN12C renal) [µM]	GI50 (SW-620 colon) [µM]	TGI (SW-620 colon) [µM]	GI50 (TK-10 renal) [µM]	TGI (TK-10 renal) [µM]	GI50 (U251 CNS) [µM]	TGI (U251 CNS) [µM]	GI50 (UO-31 renal) [µM]	TGI (UO-31 renal) [µM]
Clc1coc2nc3ccccc3c(Nc3ccc4c(c3)OCO4)c12	1.15	12.1	1.54	6.96	0.404	2.8	0.795	8.67	1.45	4.44	5.95	> 100	3.22	12.1	2.59	17.4	1.12	11.5	6.5	> 100
C=C(C=O)C1CCC2(C(=O)O)CCC3(C)C(CCC4C5(C)CCC(O)C(C)(C)C5CCC43C)C12 (stereo not given)	1.69	3.23	2.68	> 46.6	1.93	3.36	2.33	7.99	2.64	> 100	4.09	> 89.9	1.99	5.07	4.04	18.1	1.64	3.74	0.627	2.16
Cc1ccc(C(SCC(N)C(=O)O)(c2ccccc2)c2ccc(C)cc2)cc1 (stereo not given)	1.78	36.3	0.341	> 75.7	0.236	2.77	2.57	22.1	0.135	20.6	2.33	23.8	0.153	14.8	11.2	30.9	0.101	15.5	7.96	> 55
C=C(F)C(=O)N1CCN(c2nc(OC[C@@H]3CCCN3C)nc3c2CCN(c2cccc4cccc(Cl)c24)C3)C[C@@H]1CC#N	0.962	2.58	1.05	4.32	1.2	2.66	1.47	2.98	1.24	3.45	1.31	2.83	0.992	2.52	1.1	2.67	1.02	2.21	1.13	2.57
O=C1c2ccccc2C(=O)C1(Cl)C1(S(=O)(=O)O)c2ccccc2-c2ccccc21		> 100		> 100		> 100		> 100		> 100		> 100		> 100		> 100		> 100		> 100
Cn1cc(C2=C(c3ccc4ccccc4c3)C(=O)NC2=O)c2ccccc21	> 25	> 25	> 25	> 25	> 25	> 25	> 22.1	> 25	> 23.8	> 25	> 25	> 25	8.28	> 25	> 25	> 25	> 25	> 25	> 12.4	> 25
CC(C)=C[C@@H]1C[C@H](C)[C@H]2CC[C@H](C)C3=C2[C@](O)(OC3=O)[C@]1(C)O	> 100	> 100	> 100	> 100	> 100	> 100	> 100	> 100	> 100	> 100	> 100	> 100	> 100	> 100	> 100	> 100	> 100	> 100	> 100	> 100
O=S(=O)([O-])c1ccc2c(c1)-c1nc-2nc2[n-]c(nc3nc(nc4[n-]c(n1)c1ccc(S(=O)(=O)[O-])cc41)-c1cc(S(=O)(=O)[O-])ccc1-3)c1ccc(S(=O)(=O)[O-])cc21.[Cu+2].[Na+]	> 74.3	> 100	0.58	> 39.5	> 100	> 100	> 100	> 100	> 56.4	> 74.3	> 100	> 100	10.8	> 71	> 55.9	> 100	40.3	> 100	> 39.6	> 93.9
CCOP(=O)(Cc1ccc(CP(=O)(OCC)OCC)n1C)OCC		> 100		> 100		> 100		> 100		> 100		> 100		> 100		> 100		> 100		> 100
CC(=O)O.CC(=O)O.CC(=O)O.CC(=O)O.CC(=O)O.CC(=O)O.O.[Ti].[Ti]	> 100	> 100	> 100	> 100	> 100	> 100	> 100	> 100	> 100	> 100	> 100	> 100	> 100	> 100	> 100	> 100	> 100	> 100	> 100	> 100
COC(=O)C1=C(C)N(NC(=O)c2ccccc2)C(C)(O)C12CCOC2=O (stereo not given)		> 100		> 100		> 100		1.86		> 100		> 100		> 100		> 100		> 100		> 100
Cc1ccc(Cl)cc1Nc1nc(C(F)(F)F)ccc1C(=O)N1CCN(c2ccc(F)cc2)CC1	11.8	47.7	15.1	53.5	12.7	26	11.1	23.4	15.5	52.6	15	28.6	12.2	24.6	11.2	26.4	12.5	25.5	4.49	22.5
O=S(=O)(Nc1cc(F)cc(Cl)c1)c1ccc(-c2cnc(C3CC3)o2)cc1	4.67	45	1.71	> 100	3.71	18.7	2.53	28	2.74	40.6	3.49	17.4	0.599	15.5	6.29	29.6	1.55	15.2	2.96	17.6

Source: PubChem BioAssay (NCI)
